ChEMBL document CHEMBL4376801, “Glycans in drug discovery” (Medchemcomm, 2019)

Experiments:
[1] = molecular target: Type 1 fimbrin D-mannose specific adhesin (Escherichia coli K-12, UniProt P08191); assay: Binding affinity to Escherichia coli full-length FimH by competitive fluorescence polarization assay
CD209 antigen = molecular target: T1, CD209 antigen (Homo sapiens, UniProt Q9NNX6); assay: Binding affinity to human DC-SIGN by SPR analysis
T1 sequence (Q9NNX6 whole entry): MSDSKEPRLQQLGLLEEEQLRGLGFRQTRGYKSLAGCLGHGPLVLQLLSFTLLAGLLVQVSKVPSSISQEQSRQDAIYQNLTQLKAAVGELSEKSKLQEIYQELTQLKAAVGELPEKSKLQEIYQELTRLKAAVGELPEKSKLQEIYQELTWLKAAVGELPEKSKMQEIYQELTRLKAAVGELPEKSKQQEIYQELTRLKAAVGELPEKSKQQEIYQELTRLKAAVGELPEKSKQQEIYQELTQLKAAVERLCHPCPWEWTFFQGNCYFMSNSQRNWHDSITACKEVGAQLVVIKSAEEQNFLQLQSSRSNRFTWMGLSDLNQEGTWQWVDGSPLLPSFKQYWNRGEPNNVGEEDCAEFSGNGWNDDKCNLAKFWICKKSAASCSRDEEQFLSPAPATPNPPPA

Type 1 fimbrin D-mannose specific adhesin, sequence (P08191 whole entry): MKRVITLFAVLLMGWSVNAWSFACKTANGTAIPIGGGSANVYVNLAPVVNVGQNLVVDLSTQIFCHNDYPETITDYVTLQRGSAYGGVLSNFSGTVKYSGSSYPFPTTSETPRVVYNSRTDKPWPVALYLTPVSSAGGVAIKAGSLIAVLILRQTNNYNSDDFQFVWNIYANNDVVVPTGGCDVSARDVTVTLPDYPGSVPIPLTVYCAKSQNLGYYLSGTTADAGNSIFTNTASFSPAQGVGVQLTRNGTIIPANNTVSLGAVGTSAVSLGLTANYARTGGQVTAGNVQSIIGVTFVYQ

SMILES | Kd [1] [µM] | IC50 (CD209 antigen) [µM]
OC[C@H]1O[C@H](Oc2ccc(-c3ccccc3)cc2)[C@@H](O)[C@@H](O)[C@@H]1O | 1.1 | –
[N-]=[N+]=NCCO[C@H]1C[C@H](C(=O)OCc2ccc(CN)cc2)[C@@H](C(=O)OCc2ccc(CN)cc2)C[C@@H]1O[C@H]1O[C@H](CN)[C@@H](O)[C@H](O)[C@@H]1O | – | 254
N#Cc1c(F)c(F)c(-c2ccc(O[C@H]3O[C@H](CO)[C@@H](O)[C@H](O)[C@@H]3O)c(Cl)c2)c(F)c1F | 0.0221 | –
COC(=O)[C@H]1C[C@H](OCCN=[N+]=[N-])[C@@H](O[C@H]2O[C@H](CN)[C@@H](O)[C@H](O)[C@@H]2O)C[C@@H]1C(=O)OC | – | 481
